Reference: patent US7705188B2 (Arizona Board of Regents, a body corporate of the State of …, priority 2002, dated 2010)
In brackets after ≈: the same amount, converted by molar mass. Like-named read-outs stand apart in the source and are kept apart here.

How the values were obtained:
[1] = test system: BXPC-3; test: Cytotoxicity, pancreas-a BXPC-3; format: cell-based, human; conditions: for GI50: Homo sapiens, BXPC-3, BXPC-3
[2] = test system: MCF-7; test: Cytotoxicity, breast MCF-7; format: cell-based, human; conditions: for GI50: Homo sapiens, MCF7
[3] = test system: SF-268; test: Cytotoxicity, CNS SF-268; format: cell-based, human; conditions: for GI50: Homo sapiens, SF-268, SF-268, read-out: CNS SF-268 GI50
[4] = test system: NCI-H460; test: Cytotoxicity, lung-NSC NCI-H460; format: cell-based, human; conditions: for GI50: Homo sapiens, NCI-H460, NCI-H460, read-out: Lung-NSC NCI-H460 GI50
[5] = test system: KM201.2; test: Cytotoxicity, colon KM201.2; format: cell-based, human; conditions: KM201.2; for GI50: Homo sapiens, read-out: Colon KM201.2 GI50
[6] = test system: DU-145; test: Cytotoxicity, prostate DU-145; format: cell-based, human; conditions: for GI50: Homo sapiens, DU-145, DU-145
[7] = test system: Candida albicans; test: Antimicrobial broth microdilution, MIC; format: cell-based; conditions: for MIC: read-out: Minimum inhibitory concentration
Text: (§1) Stilbene production has been correlated with the resistance of grape leaves to fungal infection.

[8] = test system: Cryptococcus neoformans; test: Antimicrobial broth microdilution, MIC; format: cell-based; conditions: for MIC: read-out: Minimum inhibitory concentration
Text: as §1

[9] = test system: Enterobacter cloacae; test: Antimicrobial broth microdilution, MIC; format: cell-based; conditions: for MIC: read-out: Minimum inhibitory concentration
Text: as §1

[10] = test system: Enterococcus faecalis; test: Antimicrobial broth microdilution, MIC; format: cell-based; conditions: for MIC: read-out: Minimum inhibitory concentration
Text: as §1

[11] = test system: Escherichla coli; test: Antimicrobial broth microdilution, MIC; format: cell-based; conditions: Escherichla coli; for MIC: read-out: Minimum inhibitory concentration
Text: as §1

[12] = test system: Micrococcus luteus; test: Antimicrobial broth microdilution, MIC; format: cell-based; conditions: for MIC: read-out: Minimum inhibitory concentration
Text: as §1

[13] = test system: Neisseria gonorrhoeae; test: Antimicrobial broth microdilution, MIC; format: cell-based; conditions: Neisseria gonorrhoeae; for MIC: read-out: Minimum inhibitory concentration
Text: as §1

[14] = test system: Staphylococcus aureus; test: Antimicrobial broth microdilution, MIC; format: cell-based; conditions: for MIC: read-out: Minimum inhibitory concentration
Text: as §1

[15] = test system: Stenotrophomonas maltophilia; test: Antimicrobial broth microdilution, MIC; format: cell-based; conditions: for MIC: read-out: Minimum inhibitory concentration
Text: as §1

[16] = test system: Streptococcus pneumoniae; test: Antimicrobial broth microdilution, MIC; format: cell-based; conditions: for MIC: read-out: Minimum inhibitory concentration
Text: as §1

[17] = test system: P-388 and human tumor cell lines; test: Cytotoxicity, summary over P-388 and human tumor cell lines; format: cell-based

Compound	Pancreas-a BXPC-3 GI50 [1] [µg/mL]	Breast MCF-7 GI50 [2] [µg/mL]	CNS SF-268 GI50 [3] [µg/mL]	GI50 [1] [µg/mL]	GI50 [2] [µg/mL]	GI50 [3] [µg/mL]	GI50 [4] [µg/mL]	GI50 [5] [µg/mL]	GI50 [6] [µg/mL]	MIC [7] [µg/mL]	MIC [8] [µg/mL]	MIC [9] [µg/mL]	MIC ([10]; first line (r12)) [µg/mL]	MIC ([10]; second line (r15)) [µg/mL]	MIC [11] [µg/mL]	MIC [12] [µg/mL]	MIC [13] [µg/mL]	MIC [14] [µg/mL]	MIC [15] [µg/mL]	MIC [16] [µg/mL]	also measured
COc1cc(/C=C\c2ccccc2)cc(OC)c1OP(=O)(OCc1ccccc1)OCc1ccccc1 [Compound 14m, (Z)-3,5-dimethoxy-4-[O-bis(benzyl)phosphoryl]-stilbene]	5.4	9.0	38.5	–	–	–	–	–	–	–	–	–	–	–	–	–	–	–	–	–	Lung-NSC NCI-H460 GI50 [4]: 10.7 µg/mL; Colon KM201.2 GI50 [5]: 24.7 µg/mL; Prostate DU-145 GI50 [6]: 35.6 µg/mL
COc1ccc(C(O)c2cc(OC)cc(OC)c2)cc1 (stereo not shown) [Compound 15a]	16.1	–	23.3	–	–	–	–	–	–	–	–	–	–	–	–	–	–	–	–	–	Lung-NSC NCI-H460 GI50 [4]: 21.7 µg/mL; Colon KM201.2 GI50 [5]: 21.0 µg/mL; Prostate DU-145 GI50 [6]: 23.2 µg/mL
COc1cc(OC)cc(C(O)c2ccc(O)cc2)c1 (stereo not shown) [Compound 15c, 4′-Hydroxy-3,5-dimethoxybenzhydrol]	–	–	–	1.3 (≈ 4.99 µM)	2 (≈ 7.68 µM)	0.65 (≈ 2.5 µM)	2.3 (≈ 8.84 µM)	5.3 (≈ 20.4 µM)	5.8 (≈ 22.3 µM)	> 64	> 64	> 64	> 64	> 64	> 64	> 64	2 to 4 (≈ 7.68 to 15.4 µM)	> 64	> 64	16 (≈ 61.5 µM)	–
COc1cc(OC)cc(C(=O)c2ccc(O)cc2)c1 [Compound 16c]	4.0	2.2	3.8	–	–	–	–	–	–	–	–	–	–	–	–	–	–	–	–	–	Lung-NSC NCI-H460 GI50 [4]: 3.0 µg/mL; Colon KM201.2 GI50 [5]: 3.6 µg/mL; Prostate DU-145 GI50 [6]: 4.1 µg/mL; Minimum inhibitory concentration [7]: * (no inhibition at 64 μg/ml); Minimum inhibitory concentration [8]: * (no inhibition at 64 μg/ml); Minimum inhibitory concentration [9]: * (no inhibition at 64 μg/ml); Minimum inhibitory concentration ([10]; first line (r12)): * (no inhibition at 64 μg/ml); Minimum inhibitory concentration ([10]; second line (r15)): * (no inhibition at 64 μg/ml); Minimum inhibitory concentration [11]: * (no inhibition at 64 μg/ml); Minimum inhibitory concentration [12]: * (no inhibition at 64 μg/ml); Minimum inhibitory concentration [13]: 32 to 64 µg/mL; Minimum inhibitory concentration [14]: * (no inhibition at 64 μg/ml); Minimum inhibitory concentration [15]: * (no inhibition at 64 μg/ml); Minimum inhibitory concentration [16]: 64 µg/mL (≈ 248 µM)
COc1ccc(C(=O)c2cc(O)cc(O)c2)cc1 [Compound 16e]	–	–	–	–	–	–	–	–	–	–	–	–	–	–	–	–	–	–	–	–	Minimum inhibitory concentration [7]: * (no inhibition at 64 μg/ml); Minimum inhibitory concentration [8]: * (no inhibition at 64 μg/ml); Minimum inhibitory concentration [9]: * (no inhibition at 64 μg/ml); Minimum inhibitory concentration ([10]; first line (r12)): * (no inhibition at 64 μg/ml); Minimum inhibitory concentration ([10]; second line (r15)): * (no inhibition at 64 μg/ml); Minimum inhibitory concentration [11]: * (no inhibition at 64 μg/ml); Minimum inhibitory concentration [12]: * (no inhibition at 64 μg/ml); Minimum inhibitory concentration [13]: * (no inhibition at 64 μg/ml); Minimum inhibitory concentration [14]: * (no inhibition at 64 μg/ml); Minimum inhibitory concentration [15]: * (no inhibition at 64 μg/ml); Minimum inhibitory concentration [16]: * (no inhibition at 64 μg/ml)
O=C(c1ccc(O)cc1)c1cc(O)cc(O)c1 [Compound 16g, 3,4′,5-trihydroxybenzophenone]	–	–	–	20.5 (≈ 89 µM)	30.6 (≈ 133 µM)	22.3 (≈ 96.9 µM)	25 (≈ 109 µM)	24.5 (≈ 106 µM)	15 (≈ 65.2 µM)	> 64	> 64	> 64	> 64	> 64	> 64	> 64	> 64	> 64	> 64	64 (≈ 278 µM)	–
COc1cc(O)cc(C(=O)c2ccc(O)cc2)c1 [Compound 16i, 3,4′-dihydroxy-5-methoxybenzophenone]	–	–	–	21.7 (≈ 88.8 µM)	26.8 (≈ 110 µM)	26.4 (≈ 108 µM)	12.1 (≈ 49.5 µM)	31.6 (≈ 129 µM)	16.5 (≈ 67.6 µM)	> 64	> 64	> 64	> 64	> 64	> 64	> 64	32 (≈ 131 µM)	> 64	> 64	64 (≈ 262 µM)	–
COc1ccc(C(=O)c2cc(O)cc(OC)c2)cc1 [Compound 16k, 4′,5-dimethoxy-3-hydroxybenzophenone]	–	–	–	15 (≈ 58.1 µM)	14.2 (≈ 55 µM)	13.9 (≈ 53.8 µM)	10.3 (≈ 39.9 µM)	16.2 (≈ 62.7 µM)	12.6 (≈ 48.8 µM)	> 64	64 (≈ 248 µM)	> 64	> 64	> 64	> 64	> 64	16 to 32 (≈ 61.9 to 124 µM)	> 64	> 64	32 to 64 (≈ 124 to 248 µM)	–
Sodium Resverastatin Phosphate [Compound 14n]	–	0.73	–	–	–	–	–	–	–	–	–	–	–	–	–	–	–	–	–	–	Cytotoxicity against cancer cell lines, comparison in words [17]: essentially identical to 14c
